The source of these data is US7652006B2, “Substituted 1(2H)-phthalazinones and pharmaceutical compositions thereof” (Euro-Celtique S.A., priority 1998, dated 2010).

Each structure is given as a SMILES string. Counter-ions that a name gives are not always drawn. Like-named read-outs stand apart in the source and are kept apart here.

Usually IC50 stands for the midpoint of a concentration-inhibition curve. Broadly, the ED50 is the dose at which the effect has come halfway, by size or by number of responders. A word on the melting point: it is the temperature of the solid-liquid transition.

One data set deals with AMPA receptors. In words: electrophysiological assay, AMPA receptors expressed in oocyte. Conditions: inhibiting or modulating AMPA receptors expressed in oocyte, read-out: AMPA IC50. The format is cell-based, rat. From the text:
The compounds of the present invention may be assessed by electrophysiological assays in Xenopus oocytes expressing rat whole brain poly(A)^+ RNA (see Keana et. al. J. Med. Chem. 38: 4367-4379 (1995)) or in cultured rat cortical neurons (see Woodward et. al. Mol. Pharmacol. 47: 568-581 (1995)) for AMPA receptor activity. Compounds which are useful for treating or preventing the adverse consequences of stroke, hypoglycemia, neurodegenerative disorders, anxiety, epilepsy or psychosis, or which induce analgesia, will inhibit the currents across the membranes of the oocyte expressing AMPA receptors. However, if the compound potentiates currents across the oocyte membrane, then the compound is expected to be useful in enhancing cognition or treating schizophrenia or neurodegenerative disease such as Parkinson's Disease.
The potency of antagonism or potentiation for these compounds were determined by electrophysiological assay. Potencies of selective compounds described above in inhibiting or modulating AMPA receptors expressed in oocyte and their anticonvulsant activity against maximal electroshock induced convulsion are shown in Table 1.

Data set [1] has as its system maximal electroshock induced convulsion. In words: Maximal Electroshock-induced Seizure (MES) test. Conditions: iv, anticonvulsant activity against maximal electroshock induced convulsion; for ED50: Mus musculus. The format is in vivo, mice. From the text: The compounds of the present invention may be tested for […] anticonvulsant activity after iv or ip injection using a number of anticonvulsant tests in mice (audiogenic seizure model in DBA-2 mice. pentylenetetrazol-induced seizures in mice, maximum electroshock seizure test (MES)). The anticonvulsant activity of the AMPA antagonists may be evaluated in the Maximal Electroshock-induced Seizure (MES) test. Seizures are induced by application of current (50 mA, 60 pulses/sec, […], 1 sec duration, d.c.) through saline-coated corneal electrodes using a Ugo Basile ECT device (Model 7801). […] A tonic seizure is defined as a hindlimb extension in excess of 90 degrees from the plane of the body. Results are treated in a quintal manner. The potency of antagonism or potentiation for these compounds were determined by electrophysiological assay. Potencies of selective compounds described above in inhibiting or modulating AMPA receptors expressed in oocyte and their anticonvulsant activity against maximal electroshock induced convulsion are shown in Table 1.
On the technique in general: Protection in the maximal electroshock model is a classic sign of anticonvulsant action.

`O=c1c2cc3c(cc2c(-c2ccc4c(c2)OCO4)nn1CCN1CCCC1)OCO3` [2-[2-(1-Pyrrolidinyl)ethyl]-4-(3,4-methylenedioxyphenyl)-6,7-methylenedioxy-1(2H)-phthalazinone]: in the data set on AMPA receptors, the IC50 was determined as 10 µM. Also, the ED50 in data set [1] is 3.8 mg/kg.
The like results for `CCN(CC)CCn1c(=O)nc(-c2ccc3c(c2)OCO3)c2cc3c(cc21)OCO3` [1-[2-(diethylamino)ethyl]4-(3,4-methylenedioxyphenyl)-6,7-methylenedioxyquinazolin-2(1H)-one] were, in that order, 2 µM and 5.2 mg/kg.
`NCCOc1nc(-c2ccc3c(c2)OCO3)c2cc3c(cc2n1)OCO3` [2-(2-Aminoethoxy)-6,7-methylenedioxy-4-(3,4-methylenedioxyphenyl)quinazoline] displayed a melting point of 162 to 167 °C. Further, the IC50 in the data set with AMPA receptors turned out to be 12 µM.
On to `CN(C)CCn1nc(-c2ccc3c(c2)OCO3)c2cc3c(cc2c1=O)OCO3` [2-[2-(Dimethylamino)ethyl]-4-(3,4-methylenedioxyphenyl)-6,7-methylenedioxy-1(2H)-phthalazinone], for which the IC50 in the data set with AMPA receptors is 5 µM. Further, in data set [1], the ED50 turned out to be 3.5 mg/kg.
On the same counts, the results for `CC(C)n1c(=O)nc(-c2ccc3c(c2)CCO3)c2cc3c(cc21)OCO3` [4-(2,3-Dihydrobenzofuran-5-yl)-1-isopropyl-6,7-methylenedioxyquinazolin-2(1H)-one] are 10 µM and 3.3 mg/kg.
Consider `c1cn(CCc2nc(-c3ccc4c(c3)OCO4)c3cc4c(cc3n2)OCO4)cn1` [2-(Imidazol-1-yl)ethyl-6,7-methylenedioxy-4-(3,4-methylenedioxyphenyl)quinazoline], for which the melting point is 160 to 163 °C. For the same compound, in the data set on AMPA receptors, the IC50 is 4 µM. Further, the ED50 in data set [1] is 3.1 mg/kg.
As to `[O-][n+]1c(CCl)nc2cc3c(cc2c1-c1ccc2c(c1)OCO2)OCO3` [2-Chloromethyl-6,7-methylenedioxy-4-(3,4-methylenedioxy-phenyl)quinazoline 3-oxide], in the data set with AMPA receptors, the IC50 was determined as 8 µM. In addition, the ED50 in data set [1] was 3.1 mg/kg.
With `CC(C)n1c(=O)nc(-c2cnc3ccccc3c2)c2cc3c(cc21)OCO3` [1-Isopropyl-6,7-methylenedioxy-4-(3-quinolyl)quinazolin-2(1H)-one], the melting point fell in the range of 279 to 281 °C. Also, the IC50 in the data set on AMPA receptors turned out to be 8 µM.
Consider `CC(C)n1c(=O)nc(-c2ccc3c(c2)OCO3)c2cc3oc(=O)n(C)c3cc21` [1-Isopropyl-4-(3,4-methylenedioxyphenyl)-8-methyl-7-oxo-oxazol[5,4-g]quinazolin-2(1H)-one], for which, in the data set on AMPA receptors, the IC50 is 2 µM. In data set [1], the ED50 amounted to 1.5 mg/kg.
In turn, `CC(C)n1c(=O)nc(-c2ccc3c(c2)OCCO3)c2cc3c(cc21)OCO3` [1-Isopropyl-6,7-methylenedioxy-4-(3,4-ethylenedioxyphenyl)-quinazolin-2(1H)-one] came in with a melting point of 214 to 217 °C. For the same compound, the IC50 in the data set on AMPA receptors stood at 1.8 µM.
On to `Cn1c(=O)nc(-c2ccccc2)c2cc3c(cc21)OCO3`, for which the melting point lay within 253 to 255 °C.
On to `[O-][n+]1c(Cn2ccnc2)nc2cc3c(cc2c1-c1ccc2c(c1)OCO2)OCO3` [2-(Imidazol-1-yl)methyl-6,7-methylenedioxy-4-(3,4-methylenedioxyphenyl)quinazoline-3-oxide], for which the IC50 with AMPA receptors was 5 µM. Further, the ED50 in data set [1] turned out to be 5 mg/kg.
Regarding `c1cc2c(cc1-c1nc(OCC3CC3)nc3cc4c(cc13)OCO4)OCO2`, the melting point lay in the range of 175 to 182 °C.
On to `CC(C)n1c(=O)nc(-c2ccc3c(c2)OCO3)c2cc3c(cc21)OCO3` [1-Isopropyl-6,7-methylenedioxy-4-(3,4-methylenedioxyphenyl)quinazolin-2(1H)-one], for which the IC50 with AMPA receptors came to 2.8 µM. Further, the median effective dose (ED50) in data set [1] is 3 mg/kg.
On to `CN(C)CCOc1nc(-c2ccc3c(c2)OCO3)c2cc3c(cc2n1)OCO3.Cl` [6,7-methylenedioxy-4-(3,4-methylenedioxyphenyl)-2-(2-(dimethylamino)ethoxy)quinazoline hydrochloride], for which, in the data set with AMPA receptors (hydrochloride), the half-maximal inhibitory concentration (IC50) was 10 µM. Also, the 50% effective dose (ED50) in data set [1] was 10 mg/kg.
In the case of `CC(C)n1c(=O)nc(-c2ccc3ocnc3c2)c2cc3c(cc21)OCO3` [1-Isopropyl-6,7-methylenedioxy-4-(5-benzoxazole)quinazolin-2(1H)-one], the melting point is 241 to 243 °C. The IC50 in the data set with AMPA receptors amounted to 13 µM.
On the same counts, the results for `c1nc(-c2ccc3c(c2)OCO3)c2cc3c(cc2n1)OCO3` [6,7-Methylenedioxy-4-(3,4-methylenedioxyphenyl)quinazoline] are 180 to 185 °C and 11 µM.
As for `CCn1c(=O)nc(-c2ccc3c(c2)OCCO3)c2cc3c(cc21)OCO3` [1-Ethyl-6,7-methylenedioxy-4-(3,4-ethylenedioxyphenyl)quinazolin-2(1H)-one], in the data set on AMPA receptors, the IC50 was found to be 1.1 µM. The ED50 in data set [1] was determined as 3 mg/kg.
The compound `O=c1nc(-c2ccc3c(c2)OCO3)c2cc3c(cc2[nH]1)OCO3` showed a melting point above 300 °C.
Still for that read-out and setting: with `CC(C)n1c(=O)nc(-c2ccc(N(C)C)cc2)c2cc3c(cc21)OCO3` the figure was 240 to 245 °C.
In the case of `c1ncn(Cc2nc(-c3ccc4c(c3)OCO4)c3cc4c(cc3n2)OCO4)n1` [6,7-Methylenedioxy-2-(1,2,4-triazol-1-yl)methyl-4-(3,4-methylenedioxyphenyl)quinazoline], the melting point is 195 to 198 °C. Besides, the IC50 in the data set with AMPA receptors was determined as 9 µM.
On the same counts, the results for `C#CCn1c(=O)nc(-c2ccc3c(c2)OCO3)c2cc3c(cc21)OCO3` [1-(2-Propynyl)-6,7-methylenedioxy-4-(3,4-methylenedioxyphenyl)quinazolin-2(1H)-one] are 235 to 240 °C and 7 µM.
Compound `c1ccc(-c2nc(-c3ccc4c(c3)OCO4)c3cc4c(cc3n2)OCO4)cc1` registered a melting point of 225 to 230 °C.
On to `CCCn1c(=O)oc2cc3c(-c4ccc5c(c4)OCO5)nc(=O)n(C(C)C)c3cc21` [1-Isopropyl-4-(3,4-methylenedioxyphenyl)-8-propyl-7-oxo-oxazol[5,4-g]quinazolin-2(1H)-one], for which the melting point is 110 to 145 °C. In the data set with AMPA receptors, the IC50 amounted to 5 µM.
Regarding `[O-][n+]1cnc2cc3c(cc2c1-c1ccc2c(c1)OCO2)OCO3` [6,7-Methylenedioxy-4-(3,4-methylenedioxyphenyl)quinazoline 3-oxide], the IC50 in the data set on AMPA receptors was found to be 7 µM. The ED50 in data set [1] amounted to 2.5 mg/kg.
Turning to `CC(C)n1c(=O)nc(-c2ccc3c(c2)CCC3)c2cc3c(cc21)OCO3` [1-Isopropyl-6,7-methylenedioxy-4-(5-indanyl)quinazolin-2(1H)-one], the melting point was in the range of 73 to 75 °C. Besides, the IC50 in the data set with AMPA receptors was 5 µM.
For the compound `CCn1c(=O)nc(-c2ccc3c(c2)OCO3)c2cc3c(cc21)OCO3` [1-Ethyl-6,7-methylenedioxy-4-(3,4-methylenedioxyphenyl)quinazolin-2(1H)-one], the IC50 in the data set on AMPA receptors amounted to 5 µM. For the same compound, the ED50 in data set [1] came to 3.4 mg/kg.
`CC(C)n1c(=O)nc(-c2ccc3c(c2)OC(F)(F)O3)c2cc3c(cc21)OCO3` [1-Isopropyl-6,7-methylenedioxy-4-(3,4-difluoromethylenedioxyphenyl)quinazolin-2(1H)-one] displayed a melting point of 243 to 245 °C. Besides, in the data set with AMPA receptors, the IC50 was 2 µM.
The like results for `Cn1ccnc1SCc1nc(-c2ccc3c(c2)OCO3)c2cc3c(cc2n1)OCO3` [2-[(1-Methyl-2-imidazolyl)thio]methyl-6,7-methylenedioxy-4-(3,4-methylenedioxy-phenyl)quinazoline] were, in that order, 155 to 160 °C and 7 µM.
For the compound `CC(CN(C)C)Oc1nc(-c2ccc3c(c2)OCO3)c2cc3c(cc2n1)OCO3` (centres unmarked), the melting point lay within 172 to 175 °C.
Same read-out and setting: next, `c1cn(Cc2nc(-c3ccc4c(c3)OCO4)c3cc4c(cc3n2)OCO4)cn1`: 182 to 185 °C.
For the compound `CCOCCn1c(=O)nc(-c2ccc3c(c2)OCO3)c2cc3c(cc21)OCO3` [1-[(2-Ethoxy)ethyl]-6,7-methylenedioxy-4-(3,4-methylenedioxyphenyl)quinazoline-2-one], in the data set with AMPA receptors, the half-maximal inhibitory concentration (IC50) is 8 µM. Moreover, the ED50 in data set [1] was determined as 10 mg/kg.
On the same counts, the results for `CN(C)CCOc1nc(-c2ccc3c(c2)OCO3)c2cc3c(cc2n1)OCO3` [6,7-Methylenedioxy-4-(3,4-methylenedioxyphenyl)-2-(2-(dimethylamino)ethoxy)-quinazoline] are 2.5 µM and 4 mg/kg.
`CN(C)CCn1c(=O)nc(-c2ccc3c(c2)OCO3)c2cc3c(cc21)OCO3` [1-(2-(dimethylamino)ethyl)-6,7-methylenedioxy-4-(3,4-methylenedioxyphenyl)quinazolin-2-(1H)-one hydrochloride]: in the data set with AMPA receptors (hydrochloride), the IC50 stood at 1.1 µM. Besides, the “MES ED50” value in data set [1] (hydrochloride) is given as 8.1 mg/kg.
